We go through 2 molecules from US20210324357A1, “DEGRADATION DOMAIN MODIFICATIONS FOR SPATIO-TEMPORAL CONTROL OF RNA-GUIDED NUCLEASES” (THE BRIGHAM AND WOMEN'S HOSPITAL, INC., priority 2018, published 2021).

“Also recorded” adds a separate entry of the source.

The test system of assay [1] is FKBP-Cas9 in U2OS.eGFP-PEST cells. The assay can be described thus: Analysis of Cas9 nuclease activity via genomic eGFP-PEST disruption in U2OS cells. It is filed as cell-based, human. Conditions: for NtLp 2xFKBP Cas9 activity (% eGFP disruption): increasing amount of degrader 1.4-1000 nM. The text has this: In some embodiments, a quantitative human cell-based reporter assay that enables rapid quantitation of targeted nuclease activities is used to characterize off-target cleavage of Cas9-based RNA guided endonucleases. In this assay, the activities of nucleases targeted to a single integrated EGFP reporter gene can be quantified by assessing loss of fluorescence signal in human U2OS.EGFP cells caused by inactivating frameshift insertion/deletion (indel) mutations introduced by error prone non-homologous end-joining (NHEJ) repair of nuclease-induced double-stranded breaks (DSBs).
In one protocol, U2OS.EGFP cells harboring a single integrated copy of an EGFP-PEST fusion gene are cultured (see e.g., Reyon et al., Nat Biotech 30, 460-465 (2012), which is herein incorporated by reference in its entirety). For transfections, 200,000 cells are nucleofected with gRNA expression plasmid and pJDS246 together with 30 ng of a Td-tomato-encoding plasmid using the SE Cell Line 4D-Nucleofector™ X Kit (Lonza) according to the manufacturer's protocol. Cells are analyzed 2 days post-transfection using a BD LSRII flow cytometer. Transfections for optimizing gRNA/Cas9 plasmid concentration are performed in triplicate and all other transfections are performed in duplicate.
In plasmid delivery, approximately 200,000 U20S.eGFP-PEST cells were nucleofected with 300 ng of Cas9 and sgRNA expression plasmids (NtLp 2xFKBP, NtCt 2xFKBP, LpCt 2xFKBP, and 3xFKBP) using the SE Cell Line 4D-Nucleofector X Kit (Lonza) according to the manufacturer's protocol. Approximately 12,000 transfected cells per well were plated in a 96-well plate (Corning 3904) and incubated with dTAG 47 at 1000 nM, 333 nM, 111 nM, 37 nM, 12 nM, 4 nM, 1.4 nM at 37° C. for 48 hrs. In RNP delivery, 15 pmol pre-formed RNP (Cas9 and NtLp 2xFKBP) were nucleofected and followed the protocol described above. Cells were fixed using 4% paraformaldehyde and HCS NuclearMask Blue Stain. The plate was imaged with IXM ImageXpress Automated High Content Microscope at 4× magnification under two excitation channels (blue and green). Images were analyzed in the MetaXpress software.

For assay [2], the system named is NtLp 2xFKBP Cas9 RNP in S2 cells. The assay can be described thus: Analysis of Cas9 nuclease activity in Drosophila S2 cell via genomic eGFP disruption. Conditions: RNP delivery, dTAG-47 1000 nM, 10 nM, 0 nM, 48 hrs. Format: cell-based. Here is the method: Approximately 200,000 S2 cells were nucleofected with 15 pmol pre-formed Cas9 RNP (NtLp 2xFKBP) using SE Cell Line 4S-Nucleofector X Kit (Lonza). Approximately 70,000 transfected S2 cells per well were plated in 96-well plate and incubated with 1000 nM and 10 nM dTAG 47. After incubation at room temperature for 48 hrs, cells were stained with HCS Nuclear Mask Blue stain, and imaged with IXM ImageXpress Automated Hifh Content Microscope at 4× magnification under two excitation channels (blue and green).

The subject of assay [3] is FKBP-SpCas9 constructs (NtLp 2xFKBP, NtCt 2xFKBP, LpCt 2xFKBP, 3xFKBP) in HEK293FT cells. Kind of assay: Western blot analysis of FKBP-SpCas9 degradation. Format: cell-based. Conditions: increasing amount of dTAG-47 (0.04-3.3 uM), 24h, tubulin loading control. Here is the method:
HEK293 or NIH3T3 were transfected with pX330 FKBP-Cas9 plasmid using Lipofectamine 2000 or Lipofectamine 3000 to the manufacturer's protocol accordingly. 24 hours after transfection, cells transiently expressing the different constructs (NtLp 2xFKBP, NtCt 2xFKBP, LpCt 2xFKBP, and 3xFKBP) were incubated in either the absence or the presence of dTAG 47 (3.3 uM, 1.1 uM, 0.37 uM, 0.12 uM, 0.042 uM) for 24h before harvesting. Cells were washed with PBS and proceed to lysis in RIPA buffer. The cell suspensions were centrifuged at 16,000 g for 30 min at 4° C. 20 ug of supernatant were electrophoresed on 4-12% Bis-Tris gel with SDS-Tris running buffer. The protein bands were transferred to nitrocellulose membrane at 100V for 1 h and probed with mouse anti-Cas9 antibody (Abcam) and rabbit anti-tubulin as loading control (Abcam). After blocking and incubation with primary antibodies, membranes were incubated with 680-nm or 800-nm fluorophore labeled secondary antibodies. Protein bands were detected using LI-COR Bioisciences Odyssey Imager and analyzed by Image Studeio Lite (LI-COR Biosciences).
On the technique in general: Immunoblotting shows a protein as a band on a membrane.

In the case of `CC[C@H](C(=O)N1CCCC[C@H]1C(=O)O[C@H](CCc1ccc(OC)c(OC)c1)c1ccccc1OCC(=O)NCCCCCCOc1cccc2c1C(=O)N(C1CCC(=O)NC1=O)C2=O)c1cc(OC)c(OC)c(OC)c1` (stereo partly shown) [dTAG-13], the “potency in reducing NtLp 2xFKBP Cas9 activity” value in assay [1] (U2OS cells, RNP delivery, comparison of FIG. 4A and 4B) is reported as “less potent than dTAG-47”. The “NtLp 2xFKBP Cas9 activity (% eGFP disruption)” value in assay [1] (U2OS cells, RNP delivery) is “reduced but not as significant”. Also, in assay [1] (plasmid delivery, comparison of FIG. 3A and 3B), the “potency in inducing degradation (eGFP disruption assay of 4 FKBP-Cas9)” value is given as “less potent than dTAG-47”.

In the case of `CC[C@H](C(=O)N1CCCC[C@H]1C(=O)O[C@H](CCc1ccc(OC)c(OC)c1)c1ccccc1OCC(=O)NCCCCCCCCNc1ccc2c(c1)C(=O)N(C1CCC(=O)NC1=O)C2=O)c1cc(OC)c(OC)c(OC)c1` (stereo partly shown) [dTAG-47], the “eGFP disruption by NtLp 2xFKBP Cas9 RNP” value in assay [2] is reported as “less eGFP disrupted”. The “Cas9 protein detected (degradation of FKBP-SpCas9)” value in assay [3] was “less Cas9 protein was detected; also recorded: less Cas protein was detected”. In assay [1] (U2OS cells, RNP delivery), the “NtLp 2xFKBP Cas9 activity (% eGFP disruption)” value is “reduced significantly”. For the same molecule, the “potency in reducing Cas9 activity” value in assay [1] (plasmid delivery and RNP delivery (FIGS. 3A-3B, 4A-4B)) is “more potent in reducing Cas9 activity”.
